Experiments:
Phosphodiesterase 4 [1] = molecular target: T1, Phosphodiesterase 4 (Homo sapiens, UniProt P27815+Q08499+Q07343+Q08493); assay: Inhibition of cAMP-specific Phosphodiesterase 4 (PDE IV); type: protein assay
Phosphodiesterase 4 [2] = molecular target: T1, Phosphodiesterase 4; assay: Inhibition of rolipram binding to Phosphodiesterase 4; type: protein assay

Row | Compound | Ki (Phosphodiesterase 4 [1]) [µM] | Kd (Phosphodiesterase 4 [2]) [µM]
1 | O=C1CC(c2cc3c(c(OC4CCCC4)c2)OCCC3)CN1 (configuration not stated) | 1.17 | 0.21
2 | O=C1CC(c2cc(OC3CCCC3)c3occc3c2)CN1 (configuration not stated) | 0.26 | 0.03
3 | O=C1CC(c2ccc3c(c2)OCCO3)CN1 (configuration not stated) | > 100 | > 100
4 | O=C1CC(c2cc3c(c(OC4CCCC4)c2)OCC3)CN1 (configuration not stated) | 3.69 | 4

More lines, now with the values ahead:

Row | Ki (Phosphodiesterase 4 [1]) [µM] | Kd (Phosphodiesterase 4 [2]) [µM] | Compound
5 | 63.9 | 16.5 | O=C1CC(c2ccc3c(c2)OC2(CCCCC2)O3)CN1 (configuration not stated)
6 | > 100 | > 100 | O=C1CC(c2ccc3c(c2)OCO3)CN1 (configuration not stated)
